The text below walks through data of US9238639B2, “Aromatic ring compound” (TAKEDA PHARMACEUTICAL COMPANY LIMITED, priority 2012, dated 2016).

The target of this assay is T1, human GOAT (Homo sapiens, UniProt Q96T53).
T1 construct: made in house; host or cells: Sf9 insect cells (BacToBac baculovirus, pFastBac1 vector); microsome fraction
T1 sequence (Q96T53 1-435): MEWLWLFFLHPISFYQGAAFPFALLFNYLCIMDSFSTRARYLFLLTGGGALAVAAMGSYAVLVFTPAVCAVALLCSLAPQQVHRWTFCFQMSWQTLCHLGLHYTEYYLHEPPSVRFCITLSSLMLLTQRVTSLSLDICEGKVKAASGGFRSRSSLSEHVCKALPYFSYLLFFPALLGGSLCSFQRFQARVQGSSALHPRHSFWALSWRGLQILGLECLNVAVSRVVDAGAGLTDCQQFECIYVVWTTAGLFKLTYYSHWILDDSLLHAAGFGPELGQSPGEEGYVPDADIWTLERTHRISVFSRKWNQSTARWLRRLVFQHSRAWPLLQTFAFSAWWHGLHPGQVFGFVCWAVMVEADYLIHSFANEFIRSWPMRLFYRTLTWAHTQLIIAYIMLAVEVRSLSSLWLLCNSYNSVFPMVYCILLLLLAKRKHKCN
The assay can be described thus: GOAT enzyme activity measurement by HTRF method (human GOAT-expressing microsome fraction). The format is biochemical. The conditions noted are these: 10 μM compound; human GOAT-expressing Sf9 microsome fraction; octanoyl-CoA and Ghrelin-biotin substrates; 0% control without compound, 100% control without enzyme. The method, then:
Human GOAT (Accession NO: EU518495) cDNA was amplified by PCR including reaction of (1) 98° C., 1 min, (2) 35 repeats of 98° C., 10 sec·65° C., 15 sec·72° C., 80 sec, and (3) 72° C., 5 min, using human stomach cDNA library (Takara Bio) as a template and Pyrobest DNA Polymerase (Takara Bio). The amplified fragment was treated with restriction enzymes, inserted into Stu I/Not I sites of pFastBacl (Invitrogen) by using Ligation High (TOYOBO), and transfected into ECOS JM109 (Nippon Gene) to construct pFB/hGOAT.
Production of Baculovirus and Preparation of Insect Cell Microsome Fraction
For preparation of baculovirus from pFB/hGOAT, BacToBac baculovirus expression system (Invitrogen) was used. The virus titer was measured by Real-Time PCR using SYBR Green (Takara Bio). Sf9 cells were infected with the obtained baculovirus at Multiplicity of Infection (MOI)=0.2, and cultured for 70 hr. The Sf9 cells were recovered, suspended in a suspension buffer (TBS (0.3 M NaCl), 1 mM DTT, 1 mM EDTA, Complete (Roche) (1 tablet/50 mL)), and the cells were disrupted twice on ice at 20000 rpm, 30 sec using a polytron homogenizer. The cell disruption solution was centrifuged at 1000 rpm for 10 min at 4° C., the supernatant was further ultracentrifuged at 40000 rpm for 30 min at 4° C. and the precipitate was recovered. The obtained precipitate was suspended in the suspension buffer used above to give a human GOAT-expressing microsome fraction. The protein level was measured using BCA Protein assay Reagent (PIERCE).
Enzyme Activity Measurement by HTRF Method
A compound solution (2 μL) diluted with an assay buffer containing 50 mM Tris-HCl (pH 7.5), 0.5% TWEEN20, and Complete to 15% DMSO and 90 μg/mL human GOAT-expressing microsome fraction (2 μL) were incubated at room temperature for 20 min, after which a substrate mixed solution (2 μL) containing 30 μM octanoyl-CoA (CHEM-IMPLEX) and 3 μM Ghrelin-biotin ([…]epsilon aminocaproic acid-biotin (Greiner Coutom synthesis)) was added to 384 white small volume plate (Greiner). After reaction for 20 min, 2 μL of citrate buffer (pH3) (mixed solution of 0.1 M citric acid (39.8 mL) and 0.2 M Na2HPO4 (10.2 mL)), 2 μL of 25 nM anti-active ghrelin antibody (produced in mouse), 5 μL of Eu(K)-Anti Mouse IgG Pab (Cis Bio) 100-fold diluted with HTRF detection buffer (Cis Bio) and 5 μL of streptavidin-Xlent (Cis Bio) 66.6-fold diluted with HTRF detection buffer (Cis Bio) were added. After incubation at room temperature for 1 hr or longer, the fluorescence values at 620 nm and 665 nm were measured by Envision (PerkinElmer). The data was calculated [(665 nm signal/620 nm signal)×10^4], and the inhibitory activity against human GOAT was shown by the data where 0% control was without compound, and 100% control was without enzyme.

With `COC(=O)Cc1csc2c(F)c(OCc3cc(C(F)(F)F)nn3C)cc(C)c12` [Example 33, Methyl(7-fluoro-4-methyl-6-((1-methyl-3-(trifluoromethyl)-1H-pyrazol-5-yl)methoxy)-1-benzothiophen-3-yl)acetate], the inhibition at 10 µM was 96.1%. For `Cc1cc(OCc2cc(C(F)(F)F)nn2C)c(F)c2scc(CC(=O)O)c12` [Example 34, (7-Fluoro-4-methyl-6-((1-methyl-3-(trifluoromethyl)-1H-pyrazol-5-yl)methoxy)-1-benzothiophen-3-yl)acetic acid] the value was 104%; for `COC(=O)Cc1csc2c(F)c(OCc3ccc(C(F)(F)F)nc3C)cc(C)c12` [Example 35, Methyl(7-fluoro-4-methyl-6-((2-methyl-6-(trifluoromethyl)pyridin-3-yl)methoxy)-1-benzothiophen-3-yl)acetate], 94%; for `Cc1nc(C(F)(F)F)ccc1COc1cc(C)c2c(CC(=O)O)csc2c1F` [Example 36, (7-Fluoro-4-methyl-6-((2-methyl-6-(trifluoromethyl)pyridin-3-yl)methoxy)-1-benzothiophen-3-yl)acetic acid], 106%. For `COC(=O)Cc1csc2c(F)c(OCc3cc(C(F)(F)F)nn3C)cc(Cl)c12` [Example 37, Methyl(4-chloro-7-fluoro-6-((1-methyl-3-(trifluoromethyl)-1H-pyrazol-5-yl)methoxy)-1-benzothiophen-3-yl)acetate] the value was 98.9%; for `Cn1nc(C(F)(F)F)cc1COc1cc(Cl)c2c(CC(=O)O)csc2c1F` [Example 38, (4-Chloro-7-fluoro-6-((1-methyl-3-(trifluoromethyl)-1H-pyrazol-5-yl)methoxy)-1-benzothiophen-3-yl)acetic acid], 107%.

With `COC(=O)Cc1csc2c(F)c(OCc3ccc(C(F)(F)F)nc3C)cc(Cl)c12` [Example 39, Methyl(4-chloro-7-fluoro-6-((2-methyl-6-(trifluoromethyl)pyridin-3-yl)methoxy)-1-benzothiophen-3-yl)acetate], the inhibition at 10 µM was found to be 88.6%. For the compound `Cc1nc(C(F)(F)F)ccc1COc1cc(Cl)c2c(CC(=O)O)csc2c1F` [Example 40, (4-Chloro-7-fluoro-6-((2-methyl-6-(trifluoromethyl)pyridin-3-yl)methoxy)-1-benzothiophen-3-yl)acetic acid], the inhibition at 10 µM was found to be 106%. In the case of `O=C(O)Cc1coc2c(Cl)c(OCc3ccc(Cl)cc3Cl)ccc12` [Example 42, (7-Chloro-6-((2,4-dichlorobenzyl)oxy)-1-benzofuran-3-yl)acetic acid], the inhibition at 10 µM is 100%.

As for `COC(=O)Cc1coc2c(C)c(OCc3ccc(C)nc3C)cc(C)c12` [Example 43, Methyl(6-((2,6-dimethylpyridin-3-yl)methoxy)-4,7-dimethyl-1-benzofuran-3-yl)acetate], the inhibition at 10 µM is 92.7%. For `Cc1ccc(COc2cc(C)c3c(CC(=O)O)coc3c2C)c(C)n1` [Example 44, (6-((2,6-Dimethylpyridin-3-yl)methoxy)-4,7-dimethyl-1-benzofuran-3-yl)acetic acid] the value was 102%; for `COC(=O)Cc1coc2c(C)c(OCc3ccc(Cl)cc3Cl)cc(C)c12` [Example 45, Methyl(6-((2,4-dichlorobenzyl)oxy)-4,7-dimethyl-1-benzofuran-3-yl)acetate], 68.7%; for `Cc1c(OCc2ccc(Cl)cc2Cl)cc(C)c2c(CC(=O)O)coc12` [Example 46, (6-((2,4-Dichlorobenzyl)oxy)-4,7-dimethyl-1-benzofuran-3-yl)acetic acid], 103%.

Take `O=C(O)CC1CSc2cc(OCc3ccc(Cl)cc3Cl)ccc21` (stereo not shown) [Example 50, (6-((2,4-Dichlorobenzyl)oxy)-2,3-dihydro-1-benzothiophen-3-yl)acetic acid]: the inhibition at 10 µM was 99%.

For `O=C(O)CC1CS(=O)(=O)c2cc(OCc3ccc(Cl)cc3Cl)ccc21` (stereo not shown) [Example 52, (6-((2,4-Dichlorobenzyl)oxy)-1,1-dioxido-2,3-dihydro-1-benzothiophen-3-yl)acetic acid], the inhibition at 10 µM was 79%.

With `CCOC(=O)CNC(=O)Cc1csc2cc(OCc3ccc(Cl)cc3Cl)ccc12` [Example 53, Ethyl N-((6-((2,4-dichlorobenzyl)oxy)-1-benzothiophen-3-yl)acetyl)glycinate], the inhibition at 10 µM is 56%. With `COC(=O)[C@H](CO)NC(=O)Cc1csc2cc(OCc3ccc(Cl)cc3Cl)ccc12` [Example 54, Methyl N-((6-((2,4-dichlorobenzyl)oxy)-1-benzothiophen-3-yl)acetyl)serinate], the inhibition at 10 µM was found to be 86%. In the case of `O=C(O)CNC(=O)Cc1csc2cc(OCc3ccc(Cl)cc3Cl)ccc12` [Example 55, N-((6-((2,4-Dichlorobenzyl)oxy)-1-benzothiophen-3-yl)acetyl)glycine], the inhibition at 10 µM stood at 95%.

Regarding `O=C(Cc1csc2cc(OCc3ccc(Cl)cc3Cl)ccc12)N[C@@H](CO)C(=O)O` [Example 56, N-((6-((2,4-Dichlorobenzyl)oxy)-1-benzothiophen-3-yl)acetyl)serine], the inhibition at 10 µM worked out at 97%. The figure for `O=C(O)Cc1csc2cc(SCc3ccc(Cl)cc3Cl)ccc12` [Example 80, (6-((2,4-Dichlorobenzyl)sulfanyl)-1-benzothiophen-3-yl)acetic acid] is 99.3%.

On to `O=C(O)Cc1csc2cc(S(=O)(=O)Cc3ccc(Cl)cc3Cl)ccc12` [Example 83, (6-((2,4-Dichlorobenzyl)sulfonyl)-1-benzothiophen-3-yl)acetic acid], for which the inhibition at 10 µM was determined as 83%.

For `O=C(O)Cc1csc2cc([S+]([O-])Cc3ccc(Cl)cc3Cl)ccc12` (stereo not shown) [Example 84, (6-((2,4-Dichlorobenzyl)sulfinyl)-1-benzothiophen-3-yl)acetic acid], the inhibition at 10 µM was found to be 67%. The figure for `Cc1nc(C(F)(F)F)ccc1COc1ccc2c(CC(=O)O)csc2c1` [Example 135, (6-((2-Methyl-6-(trifluoromethyl)pyridin-3-yl)methoxy)-1-benzothiophen-3-yl)acetic acid] is 93.1%; for `Cc1nc(C(F)(F)F)ncc1COc1ccc2c(CC(=O)O)csc2c1` [Example 137, (6-((4-Methyl-2-(trifluoromethyl)pyrimidin-5-yl)methoxy)-1-benzothiophen-3-yl)acetic acid] it is 97.3%; for `CCS(=O)(=O)NC(=O)Cc1csc2cc(OCc3ccc(Cl)cc3Cl)ccc12` [Example 138, 2-(6-((2,4-Dichlorobenzyl)oxy)-1-benzothiophen-3-yl)-N-(ethylsulfonyl)acetamide] it is 83.2%. As for `Cc1nc(C(F)(F)F)ncc1COc1cc(C)c2c(CC(=O)O)csc2c1` [Example 140, (4-Methyl-6-((4-methyl-2-(trifluoromethyl)pyrimidin-5-yl)methoxy)-1-benzothiophen-3-yl)acetic acid], the inhibition at 10 µM turned out to be 100%. For `Cc1ccc(CCc2ccc3c(CC(=O)O)csc3c2)c(C)n1` [Example 182, (6-(2-(2,6-Dimethylpyridin-3-yl)ethyl)-1-benzothiophen-3-yl)acetic acid] the value was 97.3%; for `Cc1ccc(/C=C/c2ccc3c(CC(=O)O)csc3c2)c(C)n1` [Example 183, (6-((E)-2-(2,6-dimethylpyridin-3-yl)vinyl)-1-benzothiophen-3-yl)acetic acid], 83.1%.

For orientation: inhibition means the drop in the measured response relative to a control, in per cent.
